The record followed here is US6469023B1, “Heterocyclic spiro-derivative” (Daiichi Pharmaceutical Co., Ltd., priority 1995, dated 2002).

Common to all, as to assay: Antibacterial activity, standard method of Japan Society of Chemotherapy (MIC)
Type in all cases: cell-based

Assay [1] relates to Ser. marcescens, 10100. How it is done: (§1) The following Inventive and Reference Examples are provided to further illustrate the present invention, but not by way of limitation. The antibacterial activity of optically active compounds of interest was tested in accordance with the standard method designated by Japan Society of Chemotherapy. The results are shown in Table 1 as MIC (μg/ml). [drawing 10]

For assay [2], the system named is Ps. aeruginosa, 32121. How it is done: as §1
In assay [3] the test system is S. aureus, 87037. As to the method:
as §1

The subject of assay [4] is Ps. maltophilia, IID-1275. How it is done:
as §1

Assay [5] deals with Ps. aeruginosa, 32104. How it is done: as §1
Assay [6] relates to Str. faeccalis, ATCC-19433. As to the method: as §1
Assay [7] has as its system Pr. vulgaris, 08601. As to the method: as §1
Assay [8] has as its system S. aureus, 209P. As to the method: as §1
Assay [9] deals with S. epidermidis, 56500. As to the method:
as §1

For assay [10], the system named is Str. pyogenes, G-36. How it is done:
as §1

Assay [11] concerns S. flexneri, 2A 5503. As to the method: as §1
Assay [12] has as its system E. coli, NIHJ. How it is done: as §1
The test system of assay [13] is Pr. mirabilis, IFO-3849. As to the method:
as §1

The mark [14] stands for this setting: Serratia marcescens, read-out: MIC.
Setting [15] is: Pseudomonas aeruginosa, read-out: MIC.
[16] abbreviates: Staphylococcus aureus, 87037, S. aureus, read-out: MIC.
[17] abbreviates: Stenotrophomonas maltophilia, IID1275, Ps. maltophilia, read-out: MIC.
Setting [18] is: Pseudomonas aeruginosa, 32104, Ps. aeruginosa, read-out: MIC.
Where [19] appears, read: Staphylococcus aureus, read-out: MIC.
[20] abbreviates: Staphylococcus epidermidis, 56500, S. epidermidis, read-out: MIC.
[21] abbreviates: Streptococcus pyogenes, G36, Str. pyogenes, read-out: MIC.
Setting [22] is: Shigella flexneri, 2A5503, read-out: MIC.
Setting [23] is: Escherichia coli, read-out: MIC.
The mark [24] stands for this setting: Proteus mirabilis, IFO3849, Pr. mirabilis, read-out: MIC.
Setting [25] is: Proteus vulgaris, 08601, Pr. vulgaris, read-out: MIC.

Values after ≈ are worked out from the molar mass of the structure shown. Read-outs that look alike come from different tables or passages of the source.

As usually defined, the MIC is the smallest concentration in the dilution series that meets the test's criterion for growth inhibition.

Take `Nc1c(F)c(N2CCC3(CC3N)C2)c(F)c2c1c(=O)c(C(=O)O)cn2[C@@H]1C[C@@H]1F` (single isomer, unassigned) [Example 1]: the MIC in assay [1] (setting [14]) was 0.025 µg/mL (≈ 0.0612 µM); in assay [2] (setting [15]) it was 0.025 µg/mL (≈ 0.0612 µM); in [3] (setting [16]) it was 0.05 µg/mL (≈ 0.122 µM); in [4] (setting [17]), 0.025 µg/mL (≈ 0.0612 µM); in [5] (setting [18]) it was 0.025 µg/mL (≈ 0.0612 µM); in assay [6] (read-out: MIC), 0.025 µg/mL (≈ 0.0612 µM). Moreover, the MIC in assay [7] (Pr. vulgaris) was 0.006 µg/mL (≈ 0.0147 µM); in assay [8] (setting [19]), at most 0.003 µg/mL; in assay [9] (setting [20]), at most 0.003 µg/mL; in assay [10] (setting [21]), 0.013 µg/mL (≈ 0.0318 µM); in assay [11] (setting [22]), at most 0.003 µg/mL; in assay [12] (setting [23]), at most 0.003 µg/mL. Further, the minimum inhibitory concentration (MIC) in assay [13] (setting [24]) was 0.013 µg/mL (≈ 0.0318 µM).
With `Nc1c(F)c(N2CCC3(CC3N)C2)c(F)c2c1c(=O)c(C(=O)O)cn2[C@@H]1C[C@@H]1F` (single isomer, unassigned) [Example 4], the MIC came to 0.025 µg/mL (≈ 0.0612 µM) in assay [1]; 0.025 µg/mL (≈ 0.0612 µM) in assay [2]; 0.05 µg/mL (≈ 0.122 µM) in assay [3] (S. aureus); 0.025 µg/mL (≈ 0.0612 µM) in assay [4] (Ps. maltophilia); 0.05 µg/mL (≈ 0.122 µM) in assay [5] (Ps. aeruginosa); 0.025 µg/mL (≈ 0.0612 µM) in assay [6]. The minimal inhibitory concentration (MIC) in assay [7] (Pr. vulgaris) is 0.013 µg/mL (≈ 0.0318 µM); in assay [8], “≦0.003 μg/ml”; in assay [9] (S. epidermidis) it was “≦0.003 μg/ml”; in [10] (Str. pyogenes), 0.013 µg/mL (≈ 0.0318 µM); in assay [11], “≦0.003 μg/ml”; in assay [12], “≦0.003 μg/ml”. The same compound had an MIC in assay [13] (Pr. mirabilis) of 0.025 µg/mL (≈ 0.0612 µM).
On to `Cc1c(N2CCC3(CC3N)C2)c(F)c(N)c2c(=O)c(C(=O)O)cn([C@@H]3C[C@@H]3F)c12` (single isomer, unassigned) [Example 5], for which the MIC came to 0.05 µg/mL (≈ 0.124 µM) in assay [1] (setting [14]); 0.025 µg/mL (≈ 0.0618 µM) in assay [2] (setting [15]); 0.1 µg/mL (≈ 0.247 µM) in assay [3] (setting [16]); 0.05 µg/mL (≈ 0.124 µM) in assay [4] (setting [17]); 0.05 µg/mL (≈ 0.124 µM) in assay [5] (setting [18]); 0.05 µg/mL (≈ 0.124 µM) in [6] (read-out: MIC). Besides, the MIC was 0.013 µg/mL (≈ 0.0321 µM) in assay [7] (setting [25]); at most 0.003 µg/mL in assay [8] (setting [19]); 0.013 µg/mL (≈ 0.0321 µM) in assay [9] (setting [20]); 0.05 µg/mL (≈ 0.124 µM) in [10] (setting [21]); at most 0.003 µg/mL in assay [11] (setting [22]); at most 0.003 µg/mL in [12] (setting [23]). In addition, the MIC in assay [13] (setting [24]) is 0.05 µg/mL (≈ 0.124 µM).
Regarding `Cc1c(N2CCC3(CC3N)C2)c(F)cc2c(=O)c(C(=O)O)cn([C@@H]3C[C@@H]3F)c12` (single isomer, unassigned) [Example 6], the minimum inhibitory concentration (MIC) in [1] (setting [14]) turned out to be 0.025 µg/mL (≈ 0.0642 µM); in [2] (setting [15]) it was 0.025 µg/mL (≈ 0.0642 µM); in assay [3] (S. aureus), 0.10 µg/mL (≈ 0.257 µM); in assay [4] (setting [17]) it was 0.05 µg/mL (≈ 0.128 µM); in [5] (setting [18]), 0.05 µg/mL (≈ 0.128 µM); in [6] (read-out: MIC), 0.05 µg/mL (≈ 0.128 µM). In addition, the minimum inhibitory concentration (MIC) in assay [7] (setting [25]) was at most 0.003 µg/mL; in assay [8] (setting [19]) it was at most 0.003 µg/mL; in assay [9] (S. epidermidis), 0.013 µg/mL (≈ 0.0334 µM); in assay [10] (Str. pyogenes), 0.013 µg/mL (≈ 0.0334 µM); in assay [11] (setting [22]), at most 0.003 µg/mL; in assay [12] (setting [23]) it was at most 0.003 µg/mL. Also, the minimum inhibitory concentration (MIC) in assay [13] (setting [24]) was determined as 0.013 µg/mL (≈ 0.0334 µM).
Turning to `Cc1c(N2CCC3(CC3N)C2)c(F)cc2c(=O)c(C(=O)O)cn([C@@H]3C[C@@H]3F)c12` (single isomer, unassigned) [Example 7], the minimum inhibitory concentration (MIC) in assay [1] is 0.025 µg/mL (≈ 0.0642 µM); in assay [2], 0.025 µg/mL (≈ 0.0642 µM); in [3] (S. aureus) it was 0.25 µg/mL (≈ 0.642 µM); in [4] (Ps. maltophilia), 0.025 µg/mL (≈ 0.0642 µM); in assay [5] (Ps. aeruginosa) it was 0.05 µg/mL (≈ 0.128 µM); in assay [6], 0.025 µg/mL (≈ 0.0642 µM). Further, the MIC entry is “≦0.003 μg/ml” in assay [7] (Pr. vulgaris); “≦0.003 μg/ml” in assay [8]; 0.006 µg/mL (≈ 0.0154 µM) in assay [9] (S. epidermidis); 0.006 µg/mL (≈ 0.0154 µM) in [10] (Str. pyogenes); “≦0.003 μg/ml” in assay [11]; “≦0.003 μg/ml” in assay [12]. In assay [13] (Pr. mirabilis), this compound displayed an MIC of 0.013 µg/mL (≈ 0.0334 µM).
